According to the kinase profiling compilation of Christmann-Franck et al. (2016):
Blank lines part the entries; values can stand above or below the compound they belong to.

Experiments:
Test in all cases: KINOMEscan competition binding
Conditions in all cases: compound 10.0 µM
ABL1 (human) = ABL1 (human) (UniProt P00519)
[1] = test system: ABL1 (human), P00519 [H396P]
BLK (human) = BLK (human) (UniProt P51451)
BMPR1A (human) = BMPR1A (human) (UniProt P36894)
BMX (human) = BMX (human) (UniProt P51813)
CDC42BPA (human) = CDC42BPA (human) (UniProt Q5VT25)
DCLK1 (human) = DCLK1 (human) (UniProt O15075)
[2] = test system: EGFR (human), P00533 [G719C; 746-750 del]
EPHA3 (human) = EPHA3 (human) (UniProt P29320)
Chain of EPHA3 (human) (P29320 whole entry, looked up): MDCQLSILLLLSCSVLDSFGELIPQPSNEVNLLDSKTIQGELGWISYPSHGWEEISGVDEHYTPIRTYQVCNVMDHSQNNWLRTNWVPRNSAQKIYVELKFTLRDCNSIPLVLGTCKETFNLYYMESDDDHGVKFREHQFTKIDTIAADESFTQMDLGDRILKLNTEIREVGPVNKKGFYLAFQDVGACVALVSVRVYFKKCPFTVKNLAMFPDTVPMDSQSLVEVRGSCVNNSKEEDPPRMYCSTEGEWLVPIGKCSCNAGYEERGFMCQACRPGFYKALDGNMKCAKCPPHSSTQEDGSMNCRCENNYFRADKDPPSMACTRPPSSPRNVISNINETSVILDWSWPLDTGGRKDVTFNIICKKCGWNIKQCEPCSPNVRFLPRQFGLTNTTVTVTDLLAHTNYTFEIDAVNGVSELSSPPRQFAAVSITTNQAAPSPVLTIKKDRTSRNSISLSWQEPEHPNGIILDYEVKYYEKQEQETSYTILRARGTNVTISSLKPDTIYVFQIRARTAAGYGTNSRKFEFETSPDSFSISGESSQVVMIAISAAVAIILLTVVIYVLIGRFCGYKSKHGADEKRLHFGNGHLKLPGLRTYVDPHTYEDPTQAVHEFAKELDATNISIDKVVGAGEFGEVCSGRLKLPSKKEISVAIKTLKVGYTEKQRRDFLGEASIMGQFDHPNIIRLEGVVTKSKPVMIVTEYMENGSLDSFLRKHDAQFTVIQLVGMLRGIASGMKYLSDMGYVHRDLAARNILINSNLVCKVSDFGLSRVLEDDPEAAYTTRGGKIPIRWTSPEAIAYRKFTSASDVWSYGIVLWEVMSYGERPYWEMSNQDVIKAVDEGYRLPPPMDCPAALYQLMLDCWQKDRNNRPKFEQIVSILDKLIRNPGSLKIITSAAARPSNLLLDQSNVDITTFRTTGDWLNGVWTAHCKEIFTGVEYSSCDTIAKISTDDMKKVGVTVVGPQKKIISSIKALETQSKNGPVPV

EPHA4 (human) = EPHA4 (human) (UniProt P54764)
EPHA5 (human) = EPHA5 (human) (UniProt P54756)
EPHA7 (human) = EPHA7 (human) (UniProt Q15375)
FGFR2 (human) = FGFR2 (human) (UniProt P21802)
LATS1 (human) = LATS1 (human) (UniProt O95835)
MAP2K2 (human) = MAP2K2 (human) (UniProt P36507)
Chain of MAP2K2 (human) (P36507 whole entry, looked up): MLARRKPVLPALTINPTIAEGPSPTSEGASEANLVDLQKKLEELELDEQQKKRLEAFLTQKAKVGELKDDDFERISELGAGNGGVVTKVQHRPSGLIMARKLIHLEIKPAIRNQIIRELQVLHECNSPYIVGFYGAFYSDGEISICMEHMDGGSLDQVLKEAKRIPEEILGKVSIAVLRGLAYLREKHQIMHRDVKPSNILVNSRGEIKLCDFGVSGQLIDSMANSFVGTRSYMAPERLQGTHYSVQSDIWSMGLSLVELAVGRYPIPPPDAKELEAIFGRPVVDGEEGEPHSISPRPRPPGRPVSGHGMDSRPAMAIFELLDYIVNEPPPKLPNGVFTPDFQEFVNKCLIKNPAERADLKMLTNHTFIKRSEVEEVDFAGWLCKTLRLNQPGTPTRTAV

MAP3K10 (human) = MAP3K10 (human) (UniProt Q02779)
MAP3K11 (human) = MAP3K11 (human) (UniProt Q16584)
MAP3K9 (human) = MAP3K9 (human) (UniProt P80192)
MAP4K1 (human) = MAP4K1 (human) (UniProt Q92918)
Chain of MAP4K1 (human) (Q92918 whole entry, looked up): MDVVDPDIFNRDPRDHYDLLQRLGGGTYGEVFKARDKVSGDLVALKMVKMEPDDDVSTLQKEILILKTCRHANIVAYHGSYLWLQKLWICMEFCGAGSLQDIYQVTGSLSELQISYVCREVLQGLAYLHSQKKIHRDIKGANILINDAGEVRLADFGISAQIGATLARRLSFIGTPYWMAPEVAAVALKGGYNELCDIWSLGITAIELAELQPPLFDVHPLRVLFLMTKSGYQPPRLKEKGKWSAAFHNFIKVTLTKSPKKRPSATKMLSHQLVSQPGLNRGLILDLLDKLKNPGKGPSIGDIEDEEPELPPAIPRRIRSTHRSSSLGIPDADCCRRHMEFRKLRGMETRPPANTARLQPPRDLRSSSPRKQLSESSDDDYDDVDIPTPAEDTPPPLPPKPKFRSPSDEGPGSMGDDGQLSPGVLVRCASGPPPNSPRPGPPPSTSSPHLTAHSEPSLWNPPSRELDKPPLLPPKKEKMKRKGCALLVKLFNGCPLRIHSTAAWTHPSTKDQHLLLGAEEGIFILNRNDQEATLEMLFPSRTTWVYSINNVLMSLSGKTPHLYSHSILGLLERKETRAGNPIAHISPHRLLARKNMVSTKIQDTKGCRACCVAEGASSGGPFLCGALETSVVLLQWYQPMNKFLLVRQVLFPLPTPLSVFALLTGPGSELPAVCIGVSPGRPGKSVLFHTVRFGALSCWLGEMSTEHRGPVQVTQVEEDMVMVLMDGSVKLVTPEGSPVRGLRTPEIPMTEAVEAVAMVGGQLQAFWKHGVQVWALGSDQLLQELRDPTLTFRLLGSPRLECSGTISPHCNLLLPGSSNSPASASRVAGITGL

MAPK11 (human) = MAPK11 (human) (UniProt Q15759)
Chain of MAPK11 (human) (Q15759 whole entry, looked up): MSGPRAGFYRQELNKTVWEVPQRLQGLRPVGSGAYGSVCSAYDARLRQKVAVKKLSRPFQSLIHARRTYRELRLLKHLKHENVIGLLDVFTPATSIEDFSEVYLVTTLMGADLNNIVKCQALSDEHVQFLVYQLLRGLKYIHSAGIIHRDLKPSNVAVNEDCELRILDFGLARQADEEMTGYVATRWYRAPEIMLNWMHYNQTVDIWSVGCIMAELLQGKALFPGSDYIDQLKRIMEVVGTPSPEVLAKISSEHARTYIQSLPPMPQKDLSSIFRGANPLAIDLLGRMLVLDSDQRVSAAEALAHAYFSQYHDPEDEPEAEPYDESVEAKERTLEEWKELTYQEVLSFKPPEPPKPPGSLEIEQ

MAPK7 (human) = MAPK7 (human) (UniProt Q13164)
MLTK (human) = MLTK (human) (UniProt Q9NYL2)
PAK1 (human) = PAK1 (human) (UniProt Q13153)
Chain of PAK1 (human) (Q13153 whole entry, looked up): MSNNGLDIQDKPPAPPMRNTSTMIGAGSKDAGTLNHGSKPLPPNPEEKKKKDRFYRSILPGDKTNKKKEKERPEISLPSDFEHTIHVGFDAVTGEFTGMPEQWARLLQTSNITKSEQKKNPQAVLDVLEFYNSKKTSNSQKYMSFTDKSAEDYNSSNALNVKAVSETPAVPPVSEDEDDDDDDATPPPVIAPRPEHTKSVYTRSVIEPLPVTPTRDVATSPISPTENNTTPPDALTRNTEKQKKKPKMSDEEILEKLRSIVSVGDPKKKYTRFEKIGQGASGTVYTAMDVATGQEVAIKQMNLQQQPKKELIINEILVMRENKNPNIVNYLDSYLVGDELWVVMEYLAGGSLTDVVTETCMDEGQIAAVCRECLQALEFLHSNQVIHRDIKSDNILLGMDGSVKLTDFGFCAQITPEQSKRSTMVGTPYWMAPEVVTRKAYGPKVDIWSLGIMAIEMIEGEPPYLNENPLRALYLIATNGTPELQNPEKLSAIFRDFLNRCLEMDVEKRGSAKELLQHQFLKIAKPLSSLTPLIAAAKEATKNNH

PAK6 (human) = PAK6 (human) (UniProt Q9NQU5)
PAK7 (human) = PAK7 (human) (UniProt Q9P286)
PIK3CA (human) = PIK3CA (human) (UniProt P42336)
PIK3CD (human) = PIK3CD (human) (UniProt O00329)
PKMYT1 (human) = PKMYT1 (human) (UniProt Q99640)
PRKACA (human) = PRKACA (human) (UniProt P17612)
PRKCE (human) = PRKCE (human) (UniProt Q02156)
PRKCH (human) = PRKCH (human) (UniProt P24723)
PRKG2 (human) = PRKG2 (human) (UniProt Q13237)
PRKX (human) = PRKX (human) (UniProt P51817)
RPS6KA4 KD1 (human) = RPS6KA4 KD1 (human) (UniProt O75676)
RPS6KA5 KD1 (human) = RPS6KA5 KD1 (human) (UniProt O75582)
SRMS (human) = SRMS (human) (UniProt Q9H3Y6)
STK35 (human) = STK35 (human) (UniProt Q8TDR2)
Chain of STK35 (human) (Q8TDR2 whole entry, looked up): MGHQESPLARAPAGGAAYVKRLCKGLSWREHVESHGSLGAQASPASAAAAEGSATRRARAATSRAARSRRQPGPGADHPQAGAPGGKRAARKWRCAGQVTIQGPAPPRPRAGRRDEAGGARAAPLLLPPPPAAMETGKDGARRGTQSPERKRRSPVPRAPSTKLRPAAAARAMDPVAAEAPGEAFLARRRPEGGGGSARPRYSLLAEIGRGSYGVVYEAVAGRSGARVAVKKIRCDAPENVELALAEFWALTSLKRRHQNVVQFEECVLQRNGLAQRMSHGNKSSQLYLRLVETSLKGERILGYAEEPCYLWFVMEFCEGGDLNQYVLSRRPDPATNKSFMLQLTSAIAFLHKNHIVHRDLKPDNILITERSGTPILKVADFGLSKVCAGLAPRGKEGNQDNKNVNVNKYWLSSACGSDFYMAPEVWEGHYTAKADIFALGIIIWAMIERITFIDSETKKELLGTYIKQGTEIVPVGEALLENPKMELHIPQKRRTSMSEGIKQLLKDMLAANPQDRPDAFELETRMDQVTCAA

STK38L (human) = STK38L (human) (UniProt Q9Y2H1)
TESK1 (human) = TESK1 (human) (UniProt Q15569)
TGFBR1 (human) = TGFBR1 (human) (UniProt P36897)
WEE1 (human) = WEE1 (human) (UniProt P30291)
WEE2 (human) = WEE2 (human) (UniProt P0C1S8)
Chain of WEE2 (human) (P0C1S8 whole entry, looked up): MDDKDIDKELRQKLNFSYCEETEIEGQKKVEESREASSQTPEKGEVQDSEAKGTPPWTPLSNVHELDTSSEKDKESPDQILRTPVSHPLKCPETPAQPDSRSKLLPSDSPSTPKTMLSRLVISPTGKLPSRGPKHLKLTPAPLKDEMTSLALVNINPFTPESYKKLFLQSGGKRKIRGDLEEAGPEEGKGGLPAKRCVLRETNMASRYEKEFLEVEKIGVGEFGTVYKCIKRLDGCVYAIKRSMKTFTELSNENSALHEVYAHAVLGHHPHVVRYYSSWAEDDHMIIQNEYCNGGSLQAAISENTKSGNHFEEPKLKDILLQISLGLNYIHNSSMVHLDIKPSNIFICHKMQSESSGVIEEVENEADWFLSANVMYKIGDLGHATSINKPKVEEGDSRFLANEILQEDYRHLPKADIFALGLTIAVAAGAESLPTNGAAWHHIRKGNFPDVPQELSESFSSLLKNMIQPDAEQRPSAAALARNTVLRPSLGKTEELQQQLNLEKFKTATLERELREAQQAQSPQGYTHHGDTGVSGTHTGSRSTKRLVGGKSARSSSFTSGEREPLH

Chain of BMPR1A (human) (P36894 whole entry, looked up): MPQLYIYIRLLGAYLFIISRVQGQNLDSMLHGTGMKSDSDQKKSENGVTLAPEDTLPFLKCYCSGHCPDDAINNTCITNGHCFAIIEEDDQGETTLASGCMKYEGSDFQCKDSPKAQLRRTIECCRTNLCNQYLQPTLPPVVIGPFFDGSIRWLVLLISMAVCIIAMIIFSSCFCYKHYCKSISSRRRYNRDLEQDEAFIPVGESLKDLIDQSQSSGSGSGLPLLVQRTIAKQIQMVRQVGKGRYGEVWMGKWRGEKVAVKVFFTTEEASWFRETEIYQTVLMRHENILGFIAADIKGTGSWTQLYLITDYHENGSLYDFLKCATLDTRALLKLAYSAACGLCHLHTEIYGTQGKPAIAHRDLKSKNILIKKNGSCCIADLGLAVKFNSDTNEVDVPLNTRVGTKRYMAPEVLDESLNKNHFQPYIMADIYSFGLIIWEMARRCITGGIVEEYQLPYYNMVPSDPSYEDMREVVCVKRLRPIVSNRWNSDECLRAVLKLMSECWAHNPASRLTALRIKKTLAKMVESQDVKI

kinase still bound, per cent of control (ABL1 (human)): 3.2%
kinase still bound, per cent of control [1]: 0.15%
kinase still bound, per cent of control (BLK (human)): 12%
kinase still bound, per cent of control (BMPR1A (human)): 61%
kinase still bound, per cent of control (BMX (human)): 89%
kinase still bound, per cent of control (CDC42BPA (human)): 90%
kinase still bound, per cent of control (DCLK1 (human)): 1.8%
kinase still bound, per cent of control [2]: 100%
kinase still bound, per cent of control (EPHA3 (human)): 83%
kinase still bound, per cent of control (EPHA4 (human)): 97%
kinase still bound, per cent of control (EPHA5 (human)): 100%
kinase still bound, per cent of control (EPHA7 (human)): 100%
kinase still bound, per cent of control (FGFR2 (human)): 63%
kinase still bound, per cent of control (LATS1 (human)): 92%
kinase still bound, per cent of control (MAP2K2 (human)): 100%
kinase still bound, per cent of control (MAP3K10 (human)): 100%
kinase still bound, per cent of control (MAP3K11 (human)): 100%
kinase still bound, per cent of control (MAP3K9 (human)): 91%
kinase still bound, per cent of control (MAP4K1 (human)): 64%
kinase still bound, per cent of control (MAPK11 (human)): 88%
kinase still bound, per cent of control (MAPK7 (human)): 0.25%
kinase still bound, per cent of control (MLTK (human)): 100%
kinase still bound, per cent of control (PAK1 (human)): 100%
kinase still bound, per cent of control (PAK6 (human)): 100%
kinase still bound, per cent of control (PAK7 (human)): 87%
kinase still bound, per cent of control (PIK3CA (human)): 98%
kinase still bound, per cent of control (PIK3CD (human)): 58%
kinase still bound, per cent of control (PKMYT1 (human)): 100%
kinase still bound, per cent of control (PRKACA (human)): 100%
kinase still bound, per cent of control (PRKCE (human)): 99%
kinase still bound, per cent of control (PRKCH (human)): 100%
kinase still bound, per cent of control (PRKG2 (human)): 95%
kinase still bound, per cent of control (PRKX (human)): 93%
kinase still bound, per cent of control (RPS6KA4 KD1 (human)): 100%
kinase still bound, per cent of control (RPS6KA5 KD1 (human)): 100%
kinase still bound, per cent of control (SRMS (human)): 87%
kinase still bound, per cent of control (STK35 (human)): 96%
kinase still bound, per cent of control (STK38L (human)): 82%
kinase still bound, per cent of control (TESK1 (human)): 97%
kinase still bound, per cent of control (TGFBR1 (human)): 73%
kinase still bound, per cent of control (WEE1 (human)): 100%
kinase still bound, per cent of control (WEE2 (human)): 70%
Compound: CN1C(=O)c2ccccc2N(C)c2nc(Nc3ccc(N4CCC(O)CC4)cc3)ncc21

kinase still bound, per cent of control (ABL1 (human)): 100%
kinase still bound, per cent of control [1]: 100%
kinase still bound, per cent of control (BLK (human)): 100%
kinase still bound, per cent of control (BMPR1A (human)): 100%
kinase still bound, per cent of control (BMX (human)): 93%
kinase still bound, per cent of control (CDC42BPA (human)): 100%
kinase still bound, per cent of control (DCLK1 (human)): 4.5%
kinase still bound, per cent of control [2]: 78%
kinase still bound, per cent of control (EPHA3 (human)): 72%
kinase still bound, per cent of control (EPHA4 (human)): 98%
kinase still bound, per cent of control (EPHA5 (human)): 88%
kinase still bound, per cent of control (EPHA7 (human)): 92%
kinase still bound, per cent of control (FGFR2 (human)): 95%
kinase still bound, per cent of control (LATS1 (human)): 100%
kinase still bound, per cent of control (MAP2K2 (human)): 99%
kinase still bound, per cent of control (MAP3K10 (human)): 100%
kinase still bound, per cent of control (MAP3K11 (human)): 100%
kinase still bound, per cent of control (MAP3K9 (human)): 96%
kinase still bound, per cent of control (MAP4K1 (human)): 96%
kinase still bound, per cent of control (MAPK11 (human)): 74%
kinase still bound, per cent of control (MAPK7 (human)): 0.3%
kinase still bound, per cent of control (MLTK (human)): 100%
kinase still bound, per cent of control (PAK1 (human)): 83%
kinase still bound, per cent of control (PAK6 (human)): 92%
kinase still bound, per cent of control (PAK7 (human)): 64%
kinase still bound, per cent of control (PIK3CA (human)): 84%
kinase still bound, per cent of control (PIK3CD (human)): 48%
kinase still bound, per cent of control (PKMYT1 (human)): 69%
kinase still bound, per cent of control (PRKACA (human)): 100%
kinase still bound, per cent of control (PRKCE (human)): 91%
kinase still bound, per cent of control (PRKCH (human)): 100%
kinase still bound, per cent of control (PRKG2 (human)): 96%
kinase still bound, per cent of control (PRKX (human)): 91%
kinase still bound, per cent of control (RPS6KA4 KD1 (human)): 96%
kinase still bound, per cent of control (RPS6KA5 KD1 (human)): 59%
kinase still bound, per cent of control (SRMS (human)): 87%
kinase still bound, per cent of control (STK35 (human)): 95%
kinase still bound, per cent of control (STK38L (human)): 94%
kinase still bound, per cent of control (TESK1 (human)): 100%
kinase still bound, per cent of control (TGFBR1 (human)): 100%
kinase still bound, per cent of control (WEE1 (human)): 100%
kinase still bound, per cent of control (WEE2 (human)): 87%
Compound: COc1cc(N2CCC(O)CC2)ccc1Nc1ncc2c(n1)N1CCc3cccc(c31)C(=O)N2C

kinase still bound, per cent of control (ABL1 (human)): 24%
kinase still bound, per cent of control [1]: 21%
kinase still bound, per cent of control (BLK (human)): 49%
kinase still bound, per cent of control (BMPR1A (human)): 80%
kinase still bound, per cent of control (BMX (human)): 99%
kinase still bound, per cent of control (CDC42BPA (human)): 100%
kinase still bound, per cent of control (DCLK1 (human)): 59%
kinase still bound, per cent of control [2]: 39%
kinase still bound, per cent of control (EPHA3 (human)): 61%
kinase still bound, per cent of control (EPHA4 (human)): 100%
kinase still bound, per cent of control (EPHA5 (human)): 90%
kinase still bound, per cent of control (EPHA7 (human)): 100%
kinase still bound, per cent of control (FGFR2 (human)): 87%
kinase still bound, per cent of control (LATS1 (human)): 90%
kinase still bound, per cent of control (MAP2K2 (human)): 95%
kinase still bound, per cent of control (MAP3K10 (human)): 100%
kinase still bound, per cent of control (MAP3K11 (human)): 88%
kinase still bound, per cent of control (MAP3K9 (human)): 82%
kinase still bound, per cent of control (MAP4K1 (human)): 100%
kinase still bound, per cent of control (MAPK11 (human)): 100%
kinase still bound, per cent of control (MAPK7 (human)): 100%
kinase still bound, per cent of control (MLTK (human)): 100%
kinase still bound, per cent of control (PAK1 (human)): 82%
kinase still bound, per cent of control (PAK6 (human)): 100%
kinase still bound, per cent of control (PAK7 (human)): 78%
kinase still bound, per cent of control (PIK3CA (human)): 100%
kinase still bound, per cent of control (PIK3CD (human)): 100%
kinase still bound, per cent of control (PKMYT1 (human)): 100%
kinase still bound, per cent of control (PRKACA (human)): 100%
kinase still bound, per cent of control (PRKCE (human)): 93%
kinase still bound, per cent of control (PRKCH (human)): 96%
kinase still bound, per cent of control (PRKG2 (human)): 100%
kinase still bound, per cent of control (PRKX (human)): 100%
kinase still bound, per cent of control (RPS6KA4 KD1 (human)): 100%
kinase still bound, per cent of control (RPS6KA5 KD1 (human)): 90%
kinase still bound, per cent of control (SRMS (human)): 0%
kinase still bound, per cent of control (STK35 (human)): 100%
kinase still bound, per cent of control (STK38L (human)): 100%
kinase still bound, per cent of control (TESK1 (human)): 100%
kinase still bound, per cent of control (TGFBR1 (human)): 79%
kinase still bound, per cent of control (WEE1 (human)): 86%
kinase still bound, per cent of control (WEE2 (human)): 93%
Compound: COc1cc(N2CCN(C)CC2)ccc1Nc1ncc2c(n1)Nc1ccccc1NC2=O
